Each structure is given as a SMILES string.

The target of the experiment is T1, Human TRPC6 (Homo sapiens, UniProt Q9Y210).
T1 construct: expressed in transfected cells
T1 sequence (Q9Y210 1-931): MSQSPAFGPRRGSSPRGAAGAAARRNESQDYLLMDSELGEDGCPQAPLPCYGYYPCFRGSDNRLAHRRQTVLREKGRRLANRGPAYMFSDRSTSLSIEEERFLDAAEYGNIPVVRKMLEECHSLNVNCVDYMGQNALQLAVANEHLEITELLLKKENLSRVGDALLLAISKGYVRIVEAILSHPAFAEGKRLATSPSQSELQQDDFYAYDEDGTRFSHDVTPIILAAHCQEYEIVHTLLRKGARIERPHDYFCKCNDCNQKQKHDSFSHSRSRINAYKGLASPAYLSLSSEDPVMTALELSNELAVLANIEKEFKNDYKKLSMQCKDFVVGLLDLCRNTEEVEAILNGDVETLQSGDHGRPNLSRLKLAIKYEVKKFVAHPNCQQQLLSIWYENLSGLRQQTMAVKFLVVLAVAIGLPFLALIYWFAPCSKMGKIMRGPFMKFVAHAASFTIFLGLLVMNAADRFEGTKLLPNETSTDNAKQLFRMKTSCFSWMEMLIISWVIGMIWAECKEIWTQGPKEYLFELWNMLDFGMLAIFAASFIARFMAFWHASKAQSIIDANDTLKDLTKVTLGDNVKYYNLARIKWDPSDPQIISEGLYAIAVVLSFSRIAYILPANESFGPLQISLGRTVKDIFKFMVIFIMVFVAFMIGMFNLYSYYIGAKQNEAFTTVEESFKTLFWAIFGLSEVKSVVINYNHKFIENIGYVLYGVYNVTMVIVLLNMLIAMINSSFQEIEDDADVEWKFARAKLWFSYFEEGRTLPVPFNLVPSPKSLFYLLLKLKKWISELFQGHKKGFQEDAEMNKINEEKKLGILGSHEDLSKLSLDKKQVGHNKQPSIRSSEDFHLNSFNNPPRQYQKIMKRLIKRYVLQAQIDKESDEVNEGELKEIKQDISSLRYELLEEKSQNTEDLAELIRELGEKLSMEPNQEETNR
As to the kind of experiment: Evaluation of TRPC6 channel inhibitory activity (1), FLIPR Calcium 5 Assay Kit, OAG stimulation (Compound Nos. 1-1293). It counts as cell-based. As to conditions: Human TRPC6 stably-expressing cells, OAG 30 μM, FLIPR Calcium 5 Assay Kit; read-out: Inhibitory activity (pIC50 class) (converted). In a few lines: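 Readout is pIC50 from four-parameter logistic fitting of inhibition of the OAG-evoked (30 μM final) fluorescence calcium signal. Human TRPC6 stable cells are dye-loaded with probenecid, and compound is applied 20 min ahead of agonist.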

In the case of `Cc1nc(C(=O)c2cc(C#N)ccc2-c2ncc(CCN)cn2)cc(N2CCOCC2)n1` [compound 1040, 4-[5-(2-aminoethyl)pyrimidin-2-yl]-3-(2-methyl-6-morpholin-4-ylpyrimidine-4-carbonyl)benzonitrile], the IC50 was 10 to 1000 nM.
The same measure for `N#Cc1ccc(-c2ncc(CCN)cn2)c(C(=O)c2cnn(C3CCOCC3)c2)c1` [compound 1041, 4-[5-(2-aminoethyl)pyrimidin-2-yl]-3-[1-(oxan-4-yl)pyrazole-4-carbonyl]benzonitrile]: 10 to 1000 nM; for `CN(C)c1cc(C(=O)c2cc(C#N)ccc2-c2ncc(CCN)cn2)n(C)n1` [compound 1043, 4-[5-(2-aminoethyl)pyrimidin-2-yl]-3-[5-(dimethylamino)-2-methylpyrazole-3-carbonyl]benzonitrile]: under 10 nM; for `CC(C)n1cc(C(=O)c2cc(C#N)ccc2-c2ncc(CCN)cn2)cn1` [compound 1044, 4-[5-(2-aminoethyl)pyrimidin-2-yl]-3-(1-propan-2-ylpyrazole-4-carbonyl)benzonitrile]: under 10 nM.
In the case of `CC(C)n1cc(C(=O)c2cc(C#N)ccc2-c2ncc(CN)cn2)cn1` [compound 1045, 4-[5-(aminomethyl)pyrimidin-2-yl]-3-(1-propan-2-ylpyrazole-4-carbonyl)benzonitrile] it was under 10 nM; in that of `N#Cc1ccc(-c2ncc(CCN)cn2)c(C(=O)c2cnn(CC3CC3)c2)c1` [compound 1046, 4-[5-(2-aminoethyl)pyrimidin-2-yl]-3-[1-(cyclopropylmethyl)pyrazole-4-carbonyl]benzonitrile], under 10 nM.
In the case of `N#Cc1ccc(-c2ncc(CN)cn2)c(C(=O)c2cnn(CC3CC3)c2)c1` [compound 1047, 4-[5-(aminomethyl)pyrimidin-2-yl]-3-[1-(cyclopropylmethyl)pyrazole-4-carbonyl]benzonitrile] it was under 10 nM; in that of `N#Cc1ccc(-c2ncc(CCN)cn2)c(C(=O)c2cnn(-c3nccs3)c2)c1` [compound 1048, 4-[5-(2-aminoethyl)pyrimidin-2-yl]-3-[1-(1,3-thiazol-2-yl)pyrazole-4-carbonyl]benzonitrile], under 10 nM; in that of `Cc1cc(C(=O)c2cc(C#N)ccc2-c2ncc(CN)cn2)cc(N2CCOCC2)n1` [compound 1049, 4-[5-(aminomethyl)pyrimidin-2-yl]-3-(2-methyl-6-morpholin-4-ylpyridine-4-carbonyl)benzonitrile], under 10 nM.
For the molecule `N#Cc1ccc(-c2ncc(CN)cn2)c(C(=O)c2cnn(-c3nccs3)c2)c1` [compound 1050, 4-[5-(aminomethyl)pyrimidin-2-yl]-3-[1-(1,3-thiazol-2-yl)pyrazole-4-carbonyl]benzonitrile], the IC50 is 10 to 1000 nM.
In the case of `CN(C)c1cc(C(=O)c2cc(C#N)ccc2-c2ncc(CN)cn2)n(C)n1` [compound 1051, 4-[5-(aminomethyl)pyrimidin-2-yl]-3-[5-(dimethylamino)-2-methylpyrazole-3-carbonyl]benzonitrile] it was under 10 nM; in that of `N#Cc1ccc(-c2ncc(CCN)cn2)c(C(=O)c2cnn(-c3ncccn3)c2)c1` [compound 1052, 4-[5-(2-aminoethyl)pyrimidin-2-yl]-3-(1-pyrimidin-2-ylpyrazole-4-carbonyl)benzonitrile], 10 to 1000 nM; in that of `Cc1nc(C(=O)c2cc(C#N)ccc2-c2ncc(CN)cn2)cc(N2CCOCC2)n1` [compound 1053, 4-[5-(aminomethyl)pyrimidin-2-yl]-3-(2-methyl-6-morpholin-4-ylpyrimidine-4-carbonyl)benzonitrile], over 1000 nM.
In the case of `Cc1nn(C(C)C)cc1C(=O)c1cc(C#N)ccc1-c1ncc(CN)cn1` [compound 1054, 4-[5-(aminomethyl)pyrimidin-2-yl]-3-(3-methyl-1-propan-2-ylpyrazole-4-carbonyl)benzonitrile] it was under 10 nM.
In the case of `N#Cc1ccc(-c2ncc(CN)cn2)c(C(=O)c2cnn(-c3ccncn3)c2)c1` [compound 1055, 4-[5-(aminomethyl)pyrimidin-2-yl]-3-(1-pyrimidin-4-ylpyrazole-4-carbonyl)benzonitrile] it was over 1000 nM; in that of `N#Cc1ccc(-c2ncc(CN)cn2)c(C(=O)c2cnn(C3CCOCC3)c2)c1` [compound 1056, 4-[5-(aminomethyl)pyrimidin-2-yl]-3-[1-(oxan-4-yl)pyrazole-4-carbonyl]benzonitrile], 10 to 1000 nM; in that of `N#Cc1ccc(-c2ncc(CCN)cn2)c(C(=O)c2cnn(C3CCC3)c2)c1` [compound 1057, 4-[5-(2-aminoethyl)pyrimidin-2-yl]-3-(1-cyclobutylpyrazole-4-carbonyl)benzonitrile], under 10 nM.
Take `N#Cc1ccc(-c2ncc(CN)cn2)c(C(=O)c2cnn(C3CCC3)c2)c1` [compound 1058, 4-[5-(aminomethyl)pyrimidin-2-yl]-3-(1-cyclobutylpyrazole-4-carbonyl)benzonitrile]: the IC50 is under 10 nM.
On to `Cc1nc(N2CCOCC2)sc1C(=O)c1cc(C#N)ccc1-c1ccc(CCN)cc1` [compound 1059, 4-[4-(2-aminoethyl)phenyl]-3-(4-methyl-2-morpholin-4-yl-1,3-thiazole-5-carbonyl)benzonitrile], for which the IC50 is under 10 nM.
In the case of `CC(C)Cn1cc(C(=O)c2cc(C#N)ccc2-c2ncc(CCN)cn2)cn1` [compound 1060, 4-[5-(2-aminoethyl)pyrimidin-2-yl]-3-[1-(2-methylpropyl)pyrazole-4-carbonyl]benzonitrile] it was under 10 nM; in that of `CCN(CC)c1cc(C(=O)c2cc(C#N)ccc2-c2ncc(CN)cn2)n(C)n1` [compound 1061, 4-[5-(aminomethyl)pyrimidin-2-yl]-3-[5-(diethylamino)-2-methylpyrazole-3-carbonyl]benzonitrile], under 10 nM; in that of `Cn1nc(N2CCCCC2)cc1C(=O)c1cc(C#N)ccc1-c1ncc(CCN)cn1` [compound 1062, 4-[5-(2-aminoethyl)pyrimidin-2-yl]-3-(2-methyl-5-piperidin-1-ylpyrazole-3-carbonyl)benzonitrile], under 10 nM.
In the case of `Cn1nc(N2CCCCC2)cc1C(=O)c1cc(C#N)ccc1-c1ncc(CN)cn1` [compound 1063, 4-[5-(aminomethyl)pyrimidin-2-yl]-3-(2-methyl-5-piperidin-1-ylpyrazole-3-carbonyl)benzonitrile], the IC50 is under 10 nM.
The same measure for `Cc1nc(N2CCOCC2)sc1C(=O)c1cc(C#N)ccc1-c1ncc(CCN)cn1` [compound 1065, 4-[5-(2-aminoethyl)pyrimidin-2-yl]-3-(4-methyl-2-morpholin-4-yl-1,3-thiazole-5-carbonyl)benzonitrile]: under 10 nM.
In the case of `Cc1nc(N2CCOCC2)sc1C(=O)c1cc(C#N)ccc1-c1ccc(CN)cn1` [compound 1066, 4-[5-(aminomethyl)pyridin-2-yl]-3-(4-methyl-2-morpholin-4-yl-1,3-thiazole-5-carbonyl)benzonitrile] it was under 10 nM.
As to `Cc1sc(N2CCOCC2)nc1C(=O)c1cc(C#N)ccc1-c1ccc(CN)cn1` [compound 1067, 4-[5-(aminomethyl)pyridin-2-yl]-3-(5-methyl-2-morpholin-4-yl-1,3-thiazole-4-carbonyl)benzonitrile], the IC50 is over 1000 nM.

(Values after patent US20230167073A1 (Teijin Pharma Limited, priority 2020, published 2023).)
